Calls of active or inactive are those of the source.
Experiments:
[1] = AlphaScreen signal interference compounds, dose response, artefact control for ARNT-TACC3 interaction inhibitor project, biochemical, luminescence, cherry-pick (AID 651705); format: functional;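 further: AlphaScreen bead proximity signal that flags compounds interfering with the detection technology; potency reflects signal decrease which marks the compound as an assay artifact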
[2] = biological target: T1, Tyrosine-protein phosphatase non-receptor type 11 (Homo sapiens, UniProt Q06124); experiment: SHP2 phosphatase inhibition, dose response, selectivity assay for STEP inhibitor project, biochemical (AID 602367); format: functional; settings: read-out: IC50_Mean
T1 sequence (Q06124 whole entry): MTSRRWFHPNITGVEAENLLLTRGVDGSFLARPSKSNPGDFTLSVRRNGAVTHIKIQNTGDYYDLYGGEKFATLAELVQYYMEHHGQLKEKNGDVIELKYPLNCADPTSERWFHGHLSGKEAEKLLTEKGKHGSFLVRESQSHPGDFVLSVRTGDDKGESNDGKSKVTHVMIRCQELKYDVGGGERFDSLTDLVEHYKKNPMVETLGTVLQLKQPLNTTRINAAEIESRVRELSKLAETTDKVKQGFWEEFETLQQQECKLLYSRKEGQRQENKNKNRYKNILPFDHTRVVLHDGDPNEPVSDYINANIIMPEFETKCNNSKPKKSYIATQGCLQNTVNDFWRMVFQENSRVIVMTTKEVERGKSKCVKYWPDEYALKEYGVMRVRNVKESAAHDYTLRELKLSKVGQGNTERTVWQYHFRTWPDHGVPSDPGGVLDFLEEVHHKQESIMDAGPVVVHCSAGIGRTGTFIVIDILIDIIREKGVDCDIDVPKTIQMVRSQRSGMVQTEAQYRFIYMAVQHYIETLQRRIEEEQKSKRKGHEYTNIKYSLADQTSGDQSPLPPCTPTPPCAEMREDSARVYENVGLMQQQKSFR

[3] = biological target: T2, Tyrosine-protein phosphatase non-receptor type 5 (Homo sapiens, UniProt P54829); experiment: STEP phosphatase inhibitors, confirmation, biochemical, fluorescence intensity, uHTS hits (AID 602372); format: functional; settings: read-out: IC50_Mean
T2 sequence (P54829 whole entry): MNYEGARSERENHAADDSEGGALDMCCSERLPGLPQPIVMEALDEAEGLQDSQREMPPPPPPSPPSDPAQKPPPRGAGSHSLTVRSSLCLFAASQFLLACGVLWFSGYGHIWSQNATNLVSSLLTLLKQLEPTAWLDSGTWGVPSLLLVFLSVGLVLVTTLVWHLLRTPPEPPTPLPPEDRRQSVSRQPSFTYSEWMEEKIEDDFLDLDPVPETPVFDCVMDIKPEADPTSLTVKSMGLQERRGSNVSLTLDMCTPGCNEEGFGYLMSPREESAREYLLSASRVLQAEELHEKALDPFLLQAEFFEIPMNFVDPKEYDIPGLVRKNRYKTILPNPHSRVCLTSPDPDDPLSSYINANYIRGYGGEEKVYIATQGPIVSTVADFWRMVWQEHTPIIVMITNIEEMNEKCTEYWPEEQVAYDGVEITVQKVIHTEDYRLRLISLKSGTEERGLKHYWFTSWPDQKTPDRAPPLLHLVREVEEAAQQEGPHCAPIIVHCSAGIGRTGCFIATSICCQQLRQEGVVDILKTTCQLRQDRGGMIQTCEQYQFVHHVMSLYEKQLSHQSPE

[4] = biological target: Dual specificity protein phosphatase 3 (Homo sapiens, UniProt P51452); experiment: VHR phosphatase inhibition, dose response, selectivity assay for STEP inhibitor project, biochemical (AID 602374); format: functional; settings: read-out: IC50_Mean
[5] = test system: Streptococcus sp. 'group A'; experiment: growth inhibition of control SK(-) GAS strain, dose response, counter-screen for streptokinase expression inhibitor project, luminescence, kanamycin, BacTiterGlo, confirmation (AID 1900); format: functional, organism-based
[6] = test system: Streptococcus; experiment: Group A Streptococcus viability loss, dose response, counter-screen for streptokinase expression inhibitor project, luminescence, BacTiterGlo (AID 1915); format: functional, organism-based;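 further: potency for reduction of bacterial viability or growth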
[7] = biological target: T3, Low molecular weight phosphotyrosine protein phosphatase (Homo sapiens, UniProt P24666); format: functional; settings: read-out: IC50_Mean;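 further: Dose-response confirmation assay measuring inhibition of LMPTP enzyme activity by fluorescence intensity read-out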
T3 sequence (P24666 whole entry): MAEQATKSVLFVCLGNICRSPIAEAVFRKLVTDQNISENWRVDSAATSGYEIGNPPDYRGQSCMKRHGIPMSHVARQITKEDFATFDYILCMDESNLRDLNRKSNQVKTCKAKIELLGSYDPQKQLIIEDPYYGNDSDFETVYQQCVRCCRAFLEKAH

[8] = A Cell Based Secondary Assay To Explore Cytotoxicity of Compounds that Sensitize Mycobacterium Tuberculosis to Beta-Lactam Antibiotics.; format: functional
[9] = test system: CHO-K1; experiment: (§1) Counterscreen for antagonists of the orexin 1 receptor (OX1R; HCRTR1): Homogeneous time resolved fluorescence (HTRF)-based cell-based dose response assay to identify antagonists of the parental CHO-K1 cell line. [Related pubchem assays (depositor defined):AID434989, AID435008, AID463079, AID485270, AID492963, AID492964, AID492965, AID493232, AID504699, AID504701]; format: functional; settings: Cricetulus griseus
[10] = as §1, with “Fluorescence-based” for “Homogeneous time resolved fluorescence (HTRF)-based”, “cell-based high throughput” for “cell-based”, “CHO” for “CHO-K1”; format: functional
[11] = biological target: T4, Orexin/Hypocretin receptor type 1 (Homo sapiens, UniProt O43613); experiment: Homogeneous Time Resolved Fluorescence (HTRF)-based cell-based high throughput dose response assay for antagonists of the orexin 1 receptor (OX1R; HCRTR1). [Related pubchem assays (depositor defined):AID434989, AID435008, AID463079, AID485270, AID492963, AID492964, AID492965, AID493232, AID504717, AID504718]; format: functional
T4 sequence (O43613 whole entry): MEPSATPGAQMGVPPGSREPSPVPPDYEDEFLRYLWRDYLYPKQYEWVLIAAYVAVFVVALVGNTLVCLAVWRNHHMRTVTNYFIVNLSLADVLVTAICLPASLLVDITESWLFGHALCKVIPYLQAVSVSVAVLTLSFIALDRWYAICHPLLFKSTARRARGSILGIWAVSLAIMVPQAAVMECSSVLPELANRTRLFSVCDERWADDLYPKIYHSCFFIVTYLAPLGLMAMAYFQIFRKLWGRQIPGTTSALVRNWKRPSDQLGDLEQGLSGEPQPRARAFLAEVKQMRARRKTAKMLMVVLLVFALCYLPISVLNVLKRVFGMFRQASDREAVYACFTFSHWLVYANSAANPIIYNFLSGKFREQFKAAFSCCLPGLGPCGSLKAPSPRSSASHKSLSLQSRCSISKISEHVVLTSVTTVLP

[12] = biological target: T4, Orexin/Hypocretin receptor type 1; experiment: Fluorescence-based cell-based high throughput dose response assay for antagonists of the orexin 1 receptor (OX1R; HCRTR1). [Related pubchem assays (depositor defined):AID434989, AID435008, AID463079, AID485270, AID492963, AID492964, AID492965, AID493232, AID504717, AID504718]; format: functional
[13] = biological target: T5, Orexin receptor type 2 (Homo sapiens, UniProt O43614); experiment: Counterscreen assay for antagonists of the orexin 1 receptor (OX1R; HCRTR1): Fluorescence-based cell-based dose response assay for antagonists of the orexin 2 receptor (OX2R; HCRTR2), run by assay provider.; format: functional
T5 sequence (O43614 whole entry): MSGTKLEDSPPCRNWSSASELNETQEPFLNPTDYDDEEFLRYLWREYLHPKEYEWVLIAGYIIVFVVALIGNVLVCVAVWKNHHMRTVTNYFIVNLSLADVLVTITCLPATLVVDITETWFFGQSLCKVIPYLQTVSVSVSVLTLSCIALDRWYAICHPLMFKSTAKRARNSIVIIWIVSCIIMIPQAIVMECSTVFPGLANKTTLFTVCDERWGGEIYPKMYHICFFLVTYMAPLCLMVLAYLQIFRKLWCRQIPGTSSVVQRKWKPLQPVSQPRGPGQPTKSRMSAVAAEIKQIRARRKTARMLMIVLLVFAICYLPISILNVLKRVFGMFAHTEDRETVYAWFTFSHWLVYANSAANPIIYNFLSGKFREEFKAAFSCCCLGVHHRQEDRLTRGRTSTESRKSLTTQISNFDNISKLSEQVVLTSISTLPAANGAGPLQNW

[14] = biological target: T5, Orexin receptor type 2; experiment: Counterscreen assay for antagonists of the orexin 1 receptor (OX1R; HCRTR1): Homogeneous Time Resolved Fluorescence (HTRF)-based cell-based dose response assay for antagonists of the orexin 2 receptor (OX2R; HCRTR2), run by assay provider.; format: functional
[15] = biological target: T6, Aryl hydrocarbon receptor (Homo sapiens, UniProt P35869); settings: Potency;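 further: confirmatory quantitative high-throughput screen measuring activation of the AhR signaling pathway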
T6 sequence (P35869 whole entry): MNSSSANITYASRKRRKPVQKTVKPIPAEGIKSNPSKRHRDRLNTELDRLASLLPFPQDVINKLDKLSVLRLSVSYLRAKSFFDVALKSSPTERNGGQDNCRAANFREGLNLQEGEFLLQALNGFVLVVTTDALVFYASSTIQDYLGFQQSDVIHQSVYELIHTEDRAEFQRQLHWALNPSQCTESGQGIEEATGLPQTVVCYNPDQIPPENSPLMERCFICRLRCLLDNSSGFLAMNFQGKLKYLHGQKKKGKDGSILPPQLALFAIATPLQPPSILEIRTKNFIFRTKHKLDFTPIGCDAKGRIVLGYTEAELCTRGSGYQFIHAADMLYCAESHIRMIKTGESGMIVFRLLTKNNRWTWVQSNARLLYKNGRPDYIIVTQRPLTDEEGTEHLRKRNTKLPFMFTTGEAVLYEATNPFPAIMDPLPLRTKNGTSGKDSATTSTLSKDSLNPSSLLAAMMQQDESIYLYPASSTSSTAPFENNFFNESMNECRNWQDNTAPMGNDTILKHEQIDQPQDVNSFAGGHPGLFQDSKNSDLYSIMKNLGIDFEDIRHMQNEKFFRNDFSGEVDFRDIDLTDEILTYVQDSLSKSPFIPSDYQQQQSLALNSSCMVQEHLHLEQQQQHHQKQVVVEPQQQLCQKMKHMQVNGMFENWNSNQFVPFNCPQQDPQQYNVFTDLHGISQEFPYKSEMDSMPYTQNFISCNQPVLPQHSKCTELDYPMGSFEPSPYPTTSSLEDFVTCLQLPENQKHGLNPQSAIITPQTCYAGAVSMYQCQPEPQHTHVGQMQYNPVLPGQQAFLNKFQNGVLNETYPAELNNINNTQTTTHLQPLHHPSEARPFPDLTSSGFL

[16] = biological target: T7, Interleukin-8 (Homo sapiens, UniProt P10145); experiment: Dose Response confirmation of uHTS small molecule hits for cystic fibrosis induced NFkb Inhibitors in a PAF-induced IL8 counterscreen.; format: functional; settings: read-out: IC50_Mean
T7 sequence (P10145 whole entry): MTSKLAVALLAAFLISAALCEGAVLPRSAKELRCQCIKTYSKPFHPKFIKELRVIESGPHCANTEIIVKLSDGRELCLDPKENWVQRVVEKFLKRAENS

[17] = biological target: T8, Adenosylmethionine-8-amino-7-oxononanoate aminotransferase (Mycobacterium tuberculosis, UniProt P9WQ81); experiment: Mycobacterium tuberculosis BioA enzyme inhibitor Measured in Biochemical System Using Plate Reader - 2163-02_Inhibitor_Dose_CherryPick_Activity.; format: functional, Mycobacterium tuberculosis UT205
T8 sequence (P9WQ81 whole entry): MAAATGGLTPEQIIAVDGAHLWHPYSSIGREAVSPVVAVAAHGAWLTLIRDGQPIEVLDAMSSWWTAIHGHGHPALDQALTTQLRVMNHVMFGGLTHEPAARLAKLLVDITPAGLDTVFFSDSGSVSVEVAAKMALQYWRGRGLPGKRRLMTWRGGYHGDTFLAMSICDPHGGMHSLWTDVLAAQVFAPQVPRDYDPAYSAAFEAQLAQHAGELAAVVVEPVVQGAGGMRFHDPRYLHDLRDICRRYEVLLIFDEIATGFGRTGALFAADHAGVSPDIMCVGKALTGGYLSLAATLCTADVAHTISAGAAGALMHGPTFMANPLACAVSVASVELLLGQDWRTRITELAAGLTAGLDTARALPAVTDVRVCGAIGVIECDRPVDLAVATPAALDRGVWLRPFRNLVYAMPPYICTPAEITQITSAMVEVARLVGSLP

Sequence of Dual specificity protein phosphatase 3 (P51452 whole entry): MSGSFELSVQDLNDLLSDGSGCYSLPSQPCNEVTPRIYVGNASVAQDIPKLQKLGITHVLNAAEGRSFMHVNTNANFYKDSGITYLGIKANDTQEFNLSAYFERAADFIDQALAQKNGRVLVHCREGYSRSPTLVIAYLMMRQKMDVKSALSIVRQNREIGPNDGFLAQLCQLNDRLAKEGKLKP

COc1ccc(C(=O)Oc2cccc3cccnc23)cc1[N+](=O)[O-]
AC50 [1]: 135 µM (active)

O=C(Nc1nnc(C2=COCCO2)o1)c1ccc(Cl)cc1
AC50 [1]: 85.8 µM (active)

CN1CCC2(CC1)N=C(c1ccc(F)cc1)C(=S)N2
IC50 [2]: 8.94 µM (active) | IC50 [3]: 41.6 µM (inactive) | IC50 [4]: 2.69 µM (active)

C=CC1=C(C(=O)O)N2C(=O)C(NC(=O)Cc3ccccc3)C2SC1 (stereo not given)
EC50 [5]: 0.169 µM (active) | EC50 [6]: 0.269 µM (active) | IC50 [2]: 4.42 µM (active) | IC50 [3]: 52.9 µM (inactive) | IC50 [4]: 7.17 µM (active) | IC50 [7]: 42.8 µM (inactive)

C=CCn1c(SCc2ccc(C(=O)Nc3nccs3)cc2)nnc1-c1ccc(C)c(Cl)c1
CC50 [8]: 33 µM (active) | IC50 [9]: > 66.2 µM (inactive) | IC50 [10]: 18.3 µM (inactive) | IC50 [11]: 0.919 µM (active) | IC50 [12]: 4.95 µM (active) | IC50 [13]: 18 µM (inactive) | IC50 [14]: > 50 µM (inactive)

CCOc1ccccc1C(=O)NCCNC(=O)c1ccccc1OCC
IC50 [9]: > 66.2 µM (inactive) | IC50 [10]: > 49.8 µM (inactive) | IC50 [11]: 4.15 µM (active) | IC50 [12]: 3.27 µM (active) | IC50 [13]: > 88.8 µM (inactive) | IC50 [14]: 2.78 µM (active)

COc1ccc(OC)c(S(=O)(=O)NCC(c2ccco2)N2CCc3ccccc32)c1 (stereo not given)
IC50 [9]: > 66.2 µM (inactive) | IC50 [10]: > 49.8 µM (inactive) | IC50 [11]: 2.3 µM (active) | IC50 [12]: 2 µM (active) | IC50 [13]: 10.5 µM (inactive) | IC50 [14]: > 50 µM (inactive)

CCNc1nc(NCC)nc(SC)n1
AC50 [15]: 0.447 µM (inconclusive)

C#CCN(C[C@@H]1[C@@H](OC(=O)NC2CC2)[C@@H](OC(=O)NC2CC2)Cn2c(=O)ccc(=O)n21)S(=O)(=O)c1ccc(C)cc1
IC50 [16]: 6.06 µM (active)

CN1c2ccc(-c3cccc(F)c3)cc2[C@H]2[C@H](CCN2C(=O)c2ccc3c(c2)OCO3)[C@H]1CO
AC50 [17]: 0.075 µM (active)

CO[C@H]1CN(C)C(=O)c2ccc(NC(C)=O)cc2OC[C@@H](C)N(C(=O)C2CCCCC2)C[C@H]1C
AC50 [17]: 6.6 µM (active)

Cc1c(NC(=O)c2cc3ccccc3o2)cccc1-n1cnnn1
AC50 [17]: 6.18 µM (active)

Source: ChEMBL document CHEMBL1201862, “PubChem BioAssay data set” (2004)
